Measured values from article PMC5000642 (International Journal of Molecular Sciences, 2016).
Values belong to the compound of their own block, whether it stands above or below them. Where a SMILES comes first, the peptide text is derived from it. [ ]: non-standard residue; d: D form.

How the values were obtained:
[1] = target: T1, endothelin A receptor (ETAR) (Homo sapiens, UniProt P25101); test: Calcium mobilization antagonist assay in HEK293/ETAR cells evoked by […] ET-1 (cell line validation); type: cell-based
T1 construct: gene EDNRA
T1 sequence (P25101 21-427): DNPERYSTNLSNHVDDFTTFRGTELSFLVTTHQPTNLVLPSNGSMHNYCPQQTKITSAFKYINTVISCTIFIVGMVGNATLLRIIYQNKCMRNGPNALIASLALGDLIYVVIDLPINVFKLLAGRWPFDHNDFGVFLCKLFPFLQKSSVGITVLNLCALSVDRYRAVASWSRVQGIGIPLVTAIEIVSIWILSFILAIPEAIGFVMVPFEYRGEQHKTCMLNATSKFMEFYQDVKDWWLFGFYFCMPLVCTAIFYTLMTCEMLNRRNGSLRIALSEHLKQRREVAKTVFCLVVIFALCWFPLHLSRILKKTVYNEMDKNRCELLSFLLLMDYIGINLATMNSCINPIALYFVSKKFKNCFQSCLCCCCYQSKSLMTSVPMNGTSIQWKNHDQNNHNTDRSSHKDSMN

[2] = target: T1, endothelin A receptor (ETAR); test: Calcium mobilization (Fluo-4) antagonist assay in HEK293/ETAR cells evoked by […] ET-1; selective over ETB, A1, AT1 and PAR1 cell lines; type: cell-based
[3] = target: T2, proteinase-activated receptor 1 (PAR1) (Homo sapiens, UniProt P25116); test: cell-based; set-up: species or system HEK293; calcium mobilization assay in HEK293 cells stably expressing the human GPCR, agonist response
T2 construct: gene F2R; stably expressed in HEK293
T2 sequence (P25116 1-425): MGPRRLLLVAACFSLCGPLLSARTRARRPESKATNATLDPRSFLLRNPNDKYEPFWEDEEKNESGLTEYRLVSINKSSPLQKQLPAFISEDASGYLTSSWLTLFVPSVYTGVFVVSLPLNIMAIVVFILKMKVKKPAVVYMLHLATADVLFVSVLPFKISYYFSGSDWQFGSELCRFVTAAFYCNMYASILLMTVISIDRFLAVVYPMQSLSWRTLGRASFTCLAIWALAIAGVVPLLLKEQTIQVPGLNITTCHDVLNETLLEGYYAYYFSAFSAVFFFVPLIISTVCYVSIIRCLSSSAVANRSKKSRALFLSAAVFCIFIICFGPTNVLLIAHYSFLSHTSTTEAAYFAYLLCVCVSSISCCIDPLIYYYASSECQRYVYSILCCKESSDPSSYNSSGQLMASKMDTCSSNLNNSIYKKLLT
Experimental: To acquire the antagonist dose response, we tested the inhibitory effects of Sal A at different concentrations in the HEK293/ETAR cell line with 20 nM ET-1 stimulating. […] To omit a potential false positive, the cytotoxicity was tested in the HEK293/ETAR cell line by ATP CellTiter-Glo assay. In brief, Sal A was incubated in HEK293/ETAR cells for 30 min before luminescence signal measurement. […] The selectivity of Sal A was further assessed by calcium influx assay on 5 GPCRs. […] All cell lines were developed by standard procedures. Sal A was tested at a final concentration of 10 µM when cells were challenged with their selective agonists for antagonist identification. The selective antagonists of specific cell lines were used as positive control (Table S1). The HEK293 cell line was set up as the naïve group, and cells were challenged with 10 µM ATP as an agonist. […] The Gαq pathway is involved in ETAR activation, which increases intracellular Ca^2+. Based on this characteristic, a cell-based calcium mobilization assay has been used to study the function of GPCR and Ca^2+-permeable ion channels by measuring the changes of intracellular free Ca^2+ levels. In our previous study, recombinant ETAR in HEK293 cells was developed according to standard procedures. The utility of the cell line was validated using ETAR agonist (ET-1) and antagonist (BQ-123). […]

Compound: CC(C)C[C@@H]1NC(=O)[C@@H](C(C)C)NC(=O)[C@@H]2CCCN2C(=O)[C@@H](CC(=O)O)NC(=O)[C@@H](Cc2c[nH]c3ccccc23)NC1=O [BQ-123] (cyclo(L[dW][dD]P[dV]))
IC50 [1]: 0.1 nM

IC50 [2]: 5700 nM
Compound: O=C(/C=C/c1ccc(O)c(O)c1/C=C/c1ccc(O)c(O)c1)O[C@H](Cc1ccc(O)c(O)c1)C(=O)O [Sal A, Salvianolic acid A]

EC50 [3]: 890 nM
Compound: CC(C)C[C@H](NC(=O)[C@H](CC(C)C)NC(=O)[C@H](Cc1ccccc1)NC(=O)[C@@H](N)CO)C(=O)N[C@@H](CCCN=C(N)N)C(=O)N[C@@H](CC(N)=O)C(=O)O [TRAP-6]
